The record followed here is patent US12599602B2, “Methods for treating cholestasis” (Mirum Pharmaceuticals, Inc., priority 2019, dated 2026).

In the series the test system is Overweight and obese adults. Nature of the series: Phase 1 blinded, placebo-controlled, dose-ranging clinical study (NCT02475317), fecal bile acid excretion.

Counter-ions that a name gives are not always drawn.

Protocol: Participants consumed a low-fiber diet (<10 mg/day) for 2 days before randomization and during the 7-day treatment period. Measurements were taken of fBA, sBA concentration, and serum 7αC4 concentration (which is a biomarker of bile acid synthesis) prior to drug administration and at day 7.

Consider `CCCC[C@]1(CC)CS(=O)(=O)c2ccc(N(C)C)cc2[C@@H](c2cccc(NC(=O)N[C@@H]3O[C@H](COS(=O)(=O)O)[C@@H](O)[C@H](OCc4ccccc4)[C@H]3O)c2)[C@H]1O` [volixibat, (2R,3R,4S,5R,6R)-4-benzyloxy-6-{3-[3-((3S,4R,5R)-3-butyl-7-dimethylamino-3-ethyl-4-hydroxy-1,1-dioxo-2,3,4,5-tetrahydro-1H-benzo[b]thiepin-5-yl)-phenyl]-ureido}-3,5-dihydroxy-tetrahydro-pyran-2-ylmethyl) hydrogen sulfate], for which, under “7 days”, the “Mean sBA levels” value is listed as “not elevated”. Also, for the setting “across doses”, the fBA excretion entry was “increased in a dose-dependent manner”. Besides, under “all doses”, the “treatment-emergent adverse events occurring in over 10% of participants” value is “headache and diarrhea”; the “treatment-emergent adverse events, severity” value is “mild, and none were serious”. In addition, the “Mean serum 7αC4” value (baseline to day 7) is “increased”.
